Results from ChEMBL document CHEMBL5131467, “Multivalent peptide dendrimers inhibit the fusion of viral-cellular membranes and the cellular NF-κB signaling pathway” (Eur J Med Chem, 2022).
Where a SMILES comes first, the peptide text is derived from it. Bridges are numbered along the chain shown (N, C = ends). Roman numbers before positions name the chains, in order. Side-chain parts run from the residue outwards. [ ]: non-standard residue; d: D form. The star is where a group is joined. ξ: configuration not given here. Phenylacetyl(4-Ph) = O=C(Cc1ccc(-c2ccccc2)cc1)*; Fmoc = O=C(OCC1c2ccccc2-c2ccccc21)*; Palmitoyl = CCCCCCCCCCCCCCCC(=O)*; ξW = NC(Cc1c[nH]c2ccccc12)C(=O)O; Lauroyl = CCCCCCCCCCCC(=O)*; Nonanoyl = CCCCCCCCC(=O)*; Octanoyl = CCCCCCCC(=O)*; ξK = NCCCCC(N)C(=O)O

Experiments:
[1] = Cytotoxicity against MDCK cells incubated for 1 hr by MTT assay; format: toxicity, cell-based, Canis lupus familiaris; conditions: dog
Influenza A virus [2] = assay: Antiviral activity against Influenza A virus (A/Puerto Rico/8/1934(H1N1)) infected in MDCK cells assessed as reduction in virus induced cytopathic effect pre-treated with virus followed by cell infection for 1 hr by MTT assay; format: functional, organism-based
[3] = Cytotoxicity against MDCK cells by CCK-8 assay; format: toxicity, cell-based, Canis lupus familiaris; conditions: dog
Influenza A virus [4] = assay: Antiviral activity against Influenza A virus (A/Puerto Rico/8/1934(H1N1)) infected in MDCK cells assessed as reduction in virus induced cytopathic effect during infection incubated for 1 hr by MTT assay; format: functional, organism-based
[5] = Selectivity index, ratio of CC50 for MDCK cells to IC50 antiviral activity against Influenza A virus (A/Puerto Rico/8/1934(H1N1)) infected in MDCK cells assessed as reduction in virus induced cytopathic effect pre-treated with virus; format: toxicity, cell-based; conditions: dog, read-out: Selectivity Index
Influenza A virus [6] = assay: Antiviral activity against Influenza A virus (A/Puerto Rico/8/1934(H1N1)) infected in MDCK cells assessed as reduction in virus induced cytopathic effect pretreated with compound incubated for 1 hrs by MTT assay; format: functional, organism-based
Influenza A virus [7] = assay: Antiviral activity against Influenza A virus (A/Puerto Rico/8/1934(H1N1)) infected in MDCK cells assessed as reduction in virus induced cytopathic effect after infection incubated for 1 hr by MTT assay; format: functional, organism-based

NCCCC[C@H](NC(=O)[C@H](Cc1c[nH]c2ccccc12)NC(=O)[C@H](CCCCN)NC(=O)[C@H](CCCCN)NC(=O)OCC1c2ccccc2-c2ccccc21)C(=O)O (Fmoc-KKWK-OH)
CC50 at 1 h [1]: > 200000 nM
IC50 (Influenza A virus [2]): 4020 nM
CC50 [3]: 200000 nM

NCCCC[C@H](NC(=O)OCC1c2ccccc2-c2ccccc21)C(=O)N[C@@H](Cc1c[nH]c2ccccc12)C(=O)N[C@@H](CCCCN)C(=O)N[C@@H](CCCCN)C(=O)NCCCC[C@H](NC(=O)[C@H](CCCCN)NC(=O)[C@H](CCCCN)NC(=O)[C@H](Cc1c[nH]c2ccccc12)NC(=O)[C@H](CCCCN)NC(=O)OCC1c2ccccc2-c2ccccc21)C(=O)NCCCC[C@H](NC(=O)[C@H](CCCCNC(=O)[C@H](CCCCN)NC(=O)[C@H](CCCCN)NC(=O)[C@H](Cc1c[nH]c2ccccc12)NC(=O)[C@H](CCCCN)NC(=O)OCC1c2ccccc2-c2ccccc21)NC(=O)[C@H](CCCCN)NC(=O)[C@H](CCCCN)NC(=O)[C@H](Cc1c[nH]c2ccccc12)NC(=O)[C@H](CCCCN)NC(=O)OCC1c2ccccc2-c2ccccc21)C(=O)NCC(=O)O (I: Fmoc-KWKKK([Lys-Lys-Trp-Lys-Fmoc])KG-OH / II: Fmoc-KWKKK([Lys-Lys-Trp-Lys-Fmoc]); amide I:6-II:C)
CC50 at 1 h [1]: 11700 nM
IC50 (Influenza A virus [4]): 1160 nM
selectivity ratio [5]: 18.8
IC50 (Influenza A virus [2]): 620 nM
IC50 (Influenza A virus [6]): 470 nM
IC50 (Influenza A virus [7]): 5000 nM

NCCCC[C@H](NC(=O)[C@H](Cc1c[nH]c2ccccc12)NC(=O)[C@H](CCCCN)NC(=O)[C@@H](N)CCCCN)C(=O)NCCCC[C@H](NC(=O)[C@H](CCCCN)NC(=O)[C@H](Cc1c[nH]c2ccccc12)NC(=O)[C@H](CCCCN)NC(=O)[C@@H](N)CCCCN)C(=O)NCCCC[C@H](NC(=O)[C@H](CCCCNC(=O)[C@H](CCCCN)NC(=O)[C@H](Cc1c[nH]c2ccccc12)NC(=O)[C@H](CCCCN)NC(=O)[C@@H](N)CCCCN)NC(=O)[C@H](CCCCN)NC(=O)[C@H](Cc1c[nH]c2ccccc12)NC(=O)[C@H](CCCCN)NC(=O)[C@@H](N)CCCCN)C(=O)NCC(=O)O (I: H-KKWKK([Lys-Trp-Lys-Lys])KG-OH / II: H-KKWKK([Lys-Trp-Lys-Lys]); amide I:6-II:C)
CC50 at 1 h [1]: 150000 nM
IC50 (Influenza A virus [4]): > 5000 nM
IC50 (Influenza A virus [2]): > 5000 nM
IC50 (Influenza A virus [6]): > 10000 nM

CCCCCCCCCCCC(=O)N[C@@H](CCCCN)C(=O)N[C@@H](CCCCN)C(=O)N[C@@H](Cc1c[nH]c2ccccc12)C(=O)N[C@@H](CCCCN)C(=O)NCCCC[C@H](NC(=O)[C@H](CCCCN)NC(=O)[C@H](Cc1c[nH]c2ccccc12)NC(=O)[C@H](CCCCN)NC(=O)[C@H](CCCCN)NC(=O)CCCCCCCCCCC)C(=O)NCCCC[C@H](NC(=O)[C@H](CCCCNC(=O)[C@H](CCCCN)NC(=O)[C@H](Cc1c[nH]c2ccccc12)NC(=O)[C@H](CCCCN)NC(=O)[C@H](CCCCN)NC(=O)CCCCCCCCCCC)NC(=O)[C@H](CCCCN)NC(=O)[C@H](Cc1c[nH]c2ccccc12)NC(=O)[C@H](CCCCN)NC(=O)[C@H](CCCCN)NC(=O)CCCCCCCCCCC)C(=O)NCC(=O)O (I: Lauroyl-KKWKK([Lys-Trp-Lys-Lys-Lauroyl])KG-OH / II: Lauroyl-KKWKK([Lys-Trp-Lys-Lys-Lauroyl]); amide I:6-II:C)
CC50 at 1 h [1]: 5470 nM
IC50 (Influenza A virus [4]): 430 nM
selectivity ratio [5]: 19.7
IC50 (Influenza A virus [2]): 280 nM
IC50 (Influenza A virus [6]): 310 nM
IC50 (Influenza A virus [7]): > 5000 nM

CCCCCCCCCCCC(=O)N[C@@H](CCCCN)C(=O)N[C@@H](Cc1c[nH]c2ccccc12)C(=O)N[C@@H](CCCCN)C(=O)N[C@@H](CCCCN)C(=O)NCCCC[C@H](NC(=O)[C@H](CCCCN)NC(=O)[C@H](CCCCN)NC(=O)[C@H](Cc1c[nH]c2ccccc12)NC(=O)[C@H](CCCCN)NC(=O)CCCCCCCCCCC)C(=O)NCCCC[C@H](NC(=O)[C@H](CCCCNC(=O)[C@H](CCCCN)NC(=O)[C@H](CCCCN)NC(=O)[C@H](Cc1c[nH]c2ccccc12)NC(=O)[C@H](CCCCN)NC(=O)CCCCCCCCCCC)NC(=O)[C@H](CCCCN)NC(=O)[C@H](CCCCN)NC(=O)[C@H](Cc1c[nH]c2ccccc12)NC(=O)[C@H](CCCCN)NC(=O)CCCCCCCCCCC)C(=O)NCC(=O)O (I: Lauroyl-KWKKK([Lys-Lys-Trp-Lys-Lauroyl])KG-OH / II: Lauroyl-KWKKK([Lys-Lys-Trp-Lys-Lauroyl]); amide I:6-II:C)
CC50 at 1 h [1]: 1880 nM
IC50 (Influenza A virus [4]): 170 nM
selectivity ratio [5]: 5.5
IC50 (Influenza A virus [2]): 340 nM
IC50 (Influenza A virus [6]): 380 nM
IC50 (Influenza A virus [7]): > 5000 nM

CCCCCCCCC(=O)NC(CCCCN)C(=O)NC(Cc1c[nH]c2ccccc12)C(=O)NC(CCCCN)C(=O)NC(CCCCN)C(=O)N[C@@H](CCCCNC(=O)[C@H](CCCCN)NC(=O)[C@H](CCCCN)NC(=O)[C@H](Cc1c[nH]c2ccccc12)NC(=O)[C@H](CCCCN)NC(=O)CCCCCCCC)C(=O)NCCCC[C@H](NC(=O)[C@H](CCCCNC(=O)[C@H](CCCCN)NC(=O)[C@H](CCCCN)NC(=O)[C@H](Cc1c[nH]c2ccccc12)NC(=O)[C@H](CCCCN)NC(=O)CCCCCCCC)NC(=O)[C@H](CCCCN)NC(=O)[C@H](CCCCN)NC(=O)[C@H](Cc1c[nH]c2ccccc12)NC(=O)[C@H](CCCCN)NC(=O)CCCCCCCC)C(=O)NCC(=O)O (stereo partly drawn) (I: Nonanoyl-KWKKK([Lys-Lys-Trp-Lys-Nonanoyl])KG-OH / II: Nonanoyl-[ξK][ξW][ξK][ξK]K([Lys-Lys-Trp-Lys-Nonanoyl]); amide I:6-II:C)
CC50 at 1 h [1]: 3480 nM
IC50 (Influenza A virus [4]): 1480 nM
selectivity ratio [5]: 4.5
IC50 (Influenza A virus [2]): 770 nM
IC50 (Influenza A virus [6]): 580 nM
IC50 (Influenza A virus [7]): > 5000 nM

CCCCCCCC(=O)N[C@@H](CCCCN)C(=O)N[C@@H](CCCCN)C(=O)N[C@@H](Cc1c[nH]c2ccccc12)C(=O)N[C@@H](CCCCN)C(=O)NCCCC[C@H](NC(=O)[C@H](CCCCN)NC(=O)[C@H](Cc1c[nH]c2ccccc12)NC(=O)[C@H](CCCCN)NC(=O)[C@H](CCCCN)NC(=O)CCCCCCC)C(=O)NCCCC[C@H](NC(=O)[C@H](CCCCNC(=O)[C@H](CCCCN)NC(=O)[C@H](Cc1c[nH]c2ccccc12)NC(=O)[C@H](CCCCN)NC(=O)[C@H](CCCCN)NC(=O)CCCCCCC)NC(=O)[C@H](CCCCN)NC(=O)[C@H](Cc1c[nH]c2ccccc12)NC(=O)[C@H](CCCCN)NC(=O)[C@H](CCCCN)NC(=O)CCCCCCC)C(=O)NCC(=O)O (I: Octanoyl-KKWKK([Lys-Trp-Lys-Lys-Octanoyl])KG-OH / II: Octanoyl-KKWKK([Lys-Trp-Lys-Lys-Octanoyl]); amide I:6-II:C)
CC50 at 1 h [1]: 8560 nM
IC50 (Influenza A virus [4]): 640 nM
selectivity ratio [5]: 15
IC50 (Influenza A virus [2]): 570 nM
IC50 (Influenza A virus [6]): 420 nM
IC50 (Influenza A virus [7]): > 5000 nM

CCCCCCCCCCCCCCCC(=O)N[C@@H](CCCCN)C(=O)N[C@@H](CCCCN)C(=O)N[C@@H](Cc1c[nH]c2ccccc12)C(=O)N[C@@H](CCCCN)C(=O)NCCCC[C@H](NC(=O)[C@H](CCCCN)NC(=O)[C@H](Cc1c[nH]c2ccccc12)NC(=O)[C@H](CCCCN)NC(=O)[C@H](CCCCN)NC(=O)CCCCCCCCCCCCCCC)C(=O)NCCCC[C@H](NC(=O)[C@H](CCCCNC(=O)[C@H](CCCCN)NC(=O)[C@H](Cc1c[nH]c2ccccc12)NC(=O)[C@H](CCCCN)NC(=O)[C@H](CCCCN)NC(=O)CCCCCCCCCCCCCCC)NC(=O)[C@H](CCCCN)NC(=O)[C@H](Cc1c[nH]c2ccccc12)NC(=O)[C@H](CCCCN)NC(=O)[C@H](CCCCN)NC(=O)CCCCCCCCCCCCCCC)C(=O)NCC(=O)O (I: Palmitoyl-KKWKK([Lys-Trp-Lys-Lys-Palmitoyl])KG-OH / II: Palmitoyl-KKWKK([Lys-Trp-Lys-Lys-Palmitoyl]); amide I:6-II:C)
CC50 at 1 h [1]: 1580 nM
IC50 (Influenza A virus [4]): 130 nM
IC50 (Influenza A virus [2]): 100 nM
IC50 (Influenza A virus [6]): 140 nM
IC50 (Influenza A virus [7]): > 5000 nM

CCCCCCCCCCCCCCCC(=O)N[C@@H](CCCCN)C(=O)N[C@@H](Cc1c[nH]c2ccccc12)C(=O)N[C@@H](CCCCN)C(=O)N[C@@H](CCCCN)C(=O)NCCCC[C@H](NC(=O)[C@H](CCCCN)NC(=O)[C@H](CCCCN)NC(=O)[C@H](Cc1c[nH]c2ccccc12)NC(=O)[C@H](CCCCN)NC(=O)CCCCCCCCCCCCCCC)C(=O)NCCCC[C@H](NC(=O)[C@H](CCCCNC(=O)[C@H](CCCCN)NC(=O)[C@H](CCCCN)NC(=O)[C@H](Cc1c[nH]c2ccccc12)NC(=O)[C@H](CCCCN)NC(=O)CCCCCCCCCCCCCCC)NC(=O)[C@H](CCCCN)NC(=O)[C@H](CCCCN)NC(=O)[C@H](Cc1c[nH]c2ccccc12)NC(=O)[C@H](CCCCN)NC(=O)CCCCCCCCCCCCCCC)C(=O)NCC(=O)O (I: Palmitoyl-KWKKK([Lys-Lys-Trp-Lys-Palmitoyl])KG-OH / II: Palmitoyl-KWKKK([Lys-Lys-Trp-Lys-Palmitoyl]); amide I:6-II:C)
CC50 at 1 h [1]: 670 nM
IC50 (Influenza A virus [4]): 170 nM
IC50 (Influenza A virus [2]): 190 nM
IC50 (Influenza A virus [6]): 170 nM
IC50 (Influenza A virus [7]): > 5000 nM

NCCCC[C@H](NC(=O)Cc1ccc(-c2ccccc2)cc1)C(=O)N[C@@H](CCCCN)C(=O)N[C@@H](Cc1c[nH]c2ccccc12)C(=O)N[C@@H](CCCCN)C(=O)NCCCC[C@H](NC(=O)[C@H](CCCCN)NC(=O)[C@H](Cc1c[nH]c2ccccc12)NC(=O)[C@H](CCCCN)NC(=O)[C@H](CCCCN)NC(=O)Cc1ccc(-c2ccccc2)cc1)C(=O)NCCCC[C@H](NC(=O)[C@H](CCCCNC(=O)[C@H](CCCCN)NC(=O)[C@H](Cc1c[nH]c2ccccc12)NC(=O)[C@H](CCCCN)NC(=O)[C@H](CCCCN)NC(=O)Cc1ccc(-c2ccccc2)cc1)NC(=O)[C@H](CCCCN)NC(=O)[C@H](Cc1c[nH]c2ccccc12)NC(=O)[C@H](CCCCN)NC(=O)[C@H](CCCCN)NC(=O)Cc1ccc(-c2ccccc2)cc1)C(=O)NCC(=O)O (I: {Phenylacetyl(4-Ph)}-KKWKK([Lys-Trp-Lys-Lys-Phenylacetyl(4-Ph)])KG-OH / II: {Phenylacetyl(4-Ph)}-KKWKK([Lys-Trp-Lys-Lys-Phenylacetyl(4-Ph)]); amide I:6-II:C)
CC50 at 1 h [1]: 19300 nM
IC50 (Influenza A virus [4]): 200 nM
selectivity ratio [5]: 103
IC50 (Influenza A virus [2]): 190 nM
IC50 (Influenza A virus [6]): 170 nM
